Structures can show the parent of a compound that is named as a salt.
Tested on: SARS-CoV-2 (USA-WA1/2020) in Calu-3 cells
Assay type: cell-based
Conditions: Calu-3, 48 h; for dsRNA signal, AU High: high dose (10 µM); for dsRNA signal, AU Low: low dose (100 nM)

Compound | dsRNA signal, AU High [AU] | dsRNA signal, AU Low [AU]
CC(C)(C)c1nc(-c2cccc(NS(=O)(=O)c3c(F)cccc3F)c2F)c(-c2ccnc(N)n2)s1.CS(=O)(=O)O [Dabrafenib Mesylate (GSK-2118436)] | 27414.0 | 0.0
COc1cc2ncnc(Nc3ccc(F)c(Cl)c3)c2cc1NC(=O)/C=C/CN1CCCCC1 [Dacomitinib (PF299804, PF299)] | 0.0 | 7030.9
CNC(=O)c1ccc(Nc2ncc(C(F)(F)F)c(NCc3nccnc3N(C)S(C)(=O)=O)n2)cc1 [Defactinib] | 31683.7 | 56452.3
CCCCOc1cc(C(=O)NCCN(CC)CC)c2ccccc2n1.Cl [Dibucaine (Cinchocaine) HCl] | 9319.1 | 11778.5
CCCC(=O)Nc1ncnc2c1ncn2[C@@H]1O[C@@H]2COP(=O)([O-])O[C@H]2[C@H]1OC(=O)CCC.[Na+] [Dibutyryl-cAMP, sodium salt] | 10702.1 | 55803.3
O=C1c2c(O)cc(O)cc2O[C@H](c2cc(O)c(O)c(O)c2)[C@H]1O [Dihydromyricetin] | 20863.8 | 12380.4
CCc1cnn2c(NCc3ccc[n+]([O-])c3)cc(N3CCCC[C@H]3CCO)nc12 [Dinaciclib (SCH727965)] | 10476.7 | 0.0
C[C@@H]1CC[C@@]2(OC1)O[C@H]1C[C@H]3[C@@H]4CC=C5C[C@@H](O)CC[C@]5(C)[C@H]4CC[C@]3(C)[C@H]1[C@@H]2C [Diosgenin] | 0.0 | 2764.9
Cl.Cl.c1cc(-c2cnn3cc(-c4ccc(OCCN5CCCCC5)cc4)cnc23)ccn1 [Dorsomorphin 2HCl] | 1809.4 | 18817.3
c1cc(-c2cnn3cc(-c4ccc(OCCN5CCCCC5)cc4)cnc23)ccn1 [Dorsomorphin (Compound C)] | 6395.6 | 1963.8
CN1CCN(c2ccc3nc(-c4c(N)c5c(F)cccc5[nH]c4=O)[nH]c3c2)CC1 [Dovitinib (TKI-258, CHIR-258)] | 15765.0 | 183.2
CC(O)C(=O)O.CC(O)C(=O)O.CN1CCN(c2ccc3nc(-c4c(N)c5c(F)cccc5[nH]c4=O)[nH]c3c2)CC1 [Dovitinib Dilactic acid] | 47107.5 | 17331.2
O=C(Nc1nccs1)C(c1cc(F)ccc1O)N1Cc2ccccc2C1=O (centres unmarked) [EAI045] | 0.0 | 14269.6
O=c1cc(CN2CCOCC2)occ1OCCCCCSc1ccnc2cc(C(F)(F)F)ccc12 [EHT 1864] | 22471.9 | 17099.7
CCn1c2ccccc2c2cc(Nc3ccnc(NCCCN4CCOCC4)n3)ccc21 [EHop-016] | 0.0 | 44568.8
CCc1c(C(=O)NNC(=O)C(O)c2cc(F)cc(F)c2)ccc(O)c1C (centres unmarked) [EMD638683] | 288.1 | 20264.2
CN1CCC(COc2cnc(-c3cccc(Cn4nc(-c5cccc(C#N)c5)ccc4=O)c3)nc2)CC1 [EMD-1214063] | 14120.6 | 47689.1
Cc1cccc(-c2[nH]c(CNc3ccccc3F)nc2-c2ccc3ncnn3c2)n1 [EW-7197] | 168.7 | 7205.0
O=c1oc2c(O)c(O)cc3c(=O)oc4c(O)c(O)cc1c4c23 [Ellagic acid] | 14274.7 | 14007.9
Cc1cc(O)c2c(c1)C(=O)c1cc(O)cc(O)c1C2=O [Emodin] | 20341.5 | 11688.8
C#Cc1cccc(Nc2ncnc3cc(OCCOC)c(OCCOC)cc23)c1 [Erlotinib Hydrochloride] | 3624.7 | 52457.7
C#Cc1cccc(Nc2ncnc3cc(OCCOC)c(OCCOC)cc23)c1 [Erlotinib] | 7272.0 | 15317.7
CCOC(=O)c1cc(O)c(O)c(O)c1 [Ethyl gallate] | 180.5 | 60976.1
Cc1ccc(-c2c(C(=O)CF)n(CCCO)c3ncnc(N)c23)cc1 [FMK] | 36246.0 | 14082.6
Nc1[nH]nc2nnc(-c3c(-c4ccccc4)nn4ccccc34)cc12 [FR 180204] | 10806.0 | 12597.7

Compound | dsRNA signal, AU High [AU] | dsRNA signal, AU Low [AU]
CCn1c(=O)c(-c2ccc(-c3cncs3)cc2Cl)cc2cnc(Nc3ccc(N4CCN(C)CC4)cc3)nc21 [FRAX597] | 1538.8 | 50796.9
CCCCCCCCc1ccc(CCC(N)(CO)CO)cc1 [Fingolimod (FTY720)] | 0.0 | 13731.4
CN1CC[C@H](c2c(O)cc(O)c3c(=O)cc(-c4ccccc4Cl)oc23)[C@H](O)C1 [Flavopiridol] | 411.3 | 2633.8
O=C(O)c1ccccc1Nc1cccc(C(F)(F)F)c1 [Flufenamic acid] | 29762.4 | 15182.6
O=C(O)/C=C/C(=O)O [Fumalic acid] | 4691.7 | 6874.3
O=C(NOCCO)c1ccc2cncn2c1Nc1ccc(I)cc1F [GDC-0623] | 0.0 | 1908.1
OCCn1cc(-c2ccc3c(c2)CC/C3=N\O)c(-c2ccncc2)n1 [GDC-0879] | 7041.8 | 38492.2
CS(=O)(=O)N1CCN(Cc2cc3nc(-c4cccc5[nH]ncc45)nc(N4CCOCC4)c3s2)CC1.CS(=O)(=O)O.CS(=O)(=O)O [GDC-0941 dimethanesulfonate] | 20950.7 | 35251.8
CS(=O)(=O)N1CCN(Cc2cc3nc(-c4cccc5[nH]ncc45)nc(N4CCOCC4)c3s2)CC1 [GDC-0941] | 590.8 | 57346.3
Cn1nccc1Nc1nccc(-c2ccn([C@H](CO)c3ccc(Cl)c(F)c3)c(=O)c2)n1 [GDC-0994] | 4912.8 | 7646.0
O=C(Nc1nc2cccc(-c3ccc(CN4CCS(=O)(=O)CC4)cc3)n2n1)C1CC1 [GLPG0634] | 36.1 | 2690.2
CNc1nc(Nc2cnn([C@H]3CCN(C4COC4)C[C@@H]3F)c2Cl)ncc1C(F)(F)F [GNE-9605] | 40803.1 | 41939.9
NC(=O)c1cccc(-c2cc(Nc3ccc(OC(F)(F)F)cc3)ncn2)c1 [GNF 2] | 2578.1 | 60765.8
O=C(NCCO)c1cccc(-c2cc(Nc3ccc(OC(F)(F)F)cc3)ncn2)c1 [GNF 5] | 498.5 | 65630.6
Cc1ccc(NC(=O)Nc2cc(C(F)(F)F)ccc2F)cc1Nc1ccc2c(c1)NC(=O)/C2=C\c1ccc[nH]1 [GNF-5837] | 2750.0 | 23319.5
c1cn2cc(-c3ccc4cn[nH]c4c3)nc(Nc3ccc(N4CCOCC4)cc3)c2n1 [GS-9973] | 32878.5 | 51541.3
CC1=C(C(=O)Nc2cc3cn[nH]c3cc2F)C(c2ccc(C(F)(F)F)cc2)CC(=O)N1 (centres unmarked) [GSK429286A] | 10329.9 | 34075.4
CCn1c(-c2nonc2N)nc2c(C#CC(C)(C)O)ncc(OC[C@H]3CCCNC3)c21 [GSK690693] | 6007.3 | 39582.1
O=C1NC(=O)/C(=C/c2ccc3nccc(-c4ccncc4)c3c2)S1 [GSK1059615] | 832.8 | 16639.6
Cn1cc(-c2ccc3c(c2)CCN3C(=O)Cc2cccc(C(F)(F)F)c2)c2c(N)ncnc21 [GSK2606414] | 6871.8 | 28375.6
Cc1cccc(CC(=O)N2CCc3c2ccc(-c2cn(C)c4ncnc(N)c24)c3F)n1 [GSK2656157] | 2371.9 | 33522.6
COc1ccc(COc2ccc(Cc3cnc(N)nc3N)cc2OC)cc1 [GW2580] | 17974.9 | 13531.9
O=C1Nc2ccc(I)cc2/C1=C/c1cc(Br)c(O)c(Br)c1 [GW5074] | 14683.4 | 20240.6
Cn1cc(/C=C2\C(=O)Nc3cccnc32)c2ccccc21 [GW441756] | 33214.4 | 18067.5

Reference: paper PMC12142043, “Cell-based high-content approach for SARS-CoV-2 neutralization identifies unique monoclonal antibodies and PI3K pathway inhibitors” (Frontiers in Cell and Developmental Biology, 2025)
